One assay concerns the target T1, MNK1 (Homo sapiens, UniProt Q9BUB5).
T1 construct: purchased Life Technologies or Carna Biosciences PV6023 or 02-145; host or cells: baculovirus infected insect cells
In words: MNK inhibition assay (Z-Lyte kinase assay, Ser/Thr 7 peptide). In kind it is biochemical. The settings on record: for IC50: recombinant GST-MNK1, 3 hours at 31° C. The gist of the method:
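Recombinant GST-MNK1 from baculovirus-infected insect cells, Z-Lyte Ser/Thr 7 peptide, enzyme set for ~30% phosphorylation in buffer-only wells; 3 hours at 31° C. Compounds at 50–10000 nM (potent ones down to 0.5 nM), at least duplicate. IC50 from % substrate phosphorylation versus buffer-only wells, fluorescence read-out.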

The subject of assay [1] is human pancreatic cancer cell line MiaPaCa2 (ATCC CRL-1420). In words: Cell growth assay (CellTiterGlo, 72 hours). In kind it is cell-based. The settings on record: for IC50: MIA PaCa-2, MiaPaCa2 cells, 72 hours, read-out: IC50 MiaPaCa; for inhibition at 100 µM: MIA PaCa-2, at 100 μM, read-out: Inhibition of MiaPaCa growth at indicated concentration. The gist of the method: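 MiaPaCa2 cells (10^3/well) seeded in supplemented DMEM overnight, then exposed in quadruplicate to compound at 100 down to 0.1 μM for 72 h at 37° C. Growth read by CellTiterGlo luminescence, medium-only background subtracted, normalised to untreated cells; IC50 = concentration reducing growth to 50%.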

Each structure is given as a SMILES string.

T1 sequence (Q9BUB5 whole entry): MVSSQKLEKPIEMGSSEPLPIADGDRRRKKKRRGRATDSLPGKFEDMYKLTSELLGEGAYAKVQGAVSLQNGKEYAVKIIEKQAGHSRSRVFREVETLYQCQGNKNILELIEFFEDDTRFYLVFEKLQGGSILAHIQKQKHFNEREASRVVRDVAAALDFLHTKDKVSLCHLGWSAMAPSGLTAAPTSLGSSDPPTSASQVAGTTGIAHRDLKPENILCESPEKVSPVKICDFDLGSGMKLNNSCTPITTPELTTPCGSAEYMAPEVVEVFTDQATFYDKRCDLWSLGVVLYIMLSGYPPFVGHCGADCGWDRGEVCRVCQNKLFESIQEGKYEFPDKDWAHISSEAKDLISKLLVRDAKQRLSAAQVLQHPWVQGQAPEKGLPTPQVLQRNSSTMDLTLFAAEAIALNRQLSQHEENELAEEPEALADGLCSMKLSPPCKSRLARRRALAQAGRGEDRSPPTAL

In the case of `NC1CCN(Cc2ccc3cncc(-c4ccc(NC(=O)Nc5ccccn5)cc4)c3c2)CC1` [Example 119], the values for the IC50 (on MNK1; in assay [1]) were 388 nM and 2560 nM, respectively.
Consider `Cc1cc(NC(=O)Nc2ccc(-c3cncc4ccc(CN5CCC(N)CC5)cc34)cc2)on1` [Example 120, 1-[4-[6-[(4-Amino-1-piperidyl)methyl]-4-isoquinolyl]phenyl]-3-(3-methylisoxazol-5-yl)urea], for which the IC50 (as a rule, the point on the concentration scale where inhibition reaches its midpoint) on MNK1 came to 683 nM; in assay [1], 18600 nM.
`Nc1cc[n+](Cc2ccc3cncc(-c4ccccc4)c3c2)cc1` [Example 121, 1-[(4-Phenyl-6-isoquinolyl)methyl]pyridin-1-ium-4-amine]: the values for the IC50 (at MNK1; in assay [1]) were 165 nM and 21800 nM, respectively.
Turning to `Nc1cc[n+](Cc2ccc3cncc(-c4ccc(O)cc4)c3c2)cc1` [Example 122], the IC50 on MNK1 amounted to 28 nM. For the same compound, in assay [1], the inhibition at 100 µM is 37%.
Consider `Nc1cc[n+](Cc2ccc3cncc(-c4ccc(Cl)cc4)c3c2)cc1` [Example 123], for which the IC50 worked out at 132 nM on MNK1 and 7920 nM in assay [1].
As to `Nc1cc[n+](Cc2ccc3cncc(-c4ccc(NC(=O)Nc5ccccc5)cc4)c3c2)cc1` [Example 124], the IC50 at MNK1 was 2080 nM; in assay [1], 45800 nM.
The like results for `Cc1cc(N)cc[n+]1Cc1ccc2cncc(-c3cc4ccccc4o3)c2c1` [Example 125, 1-[[4-(Benzofuran-2-yl)-6-isoquinolyl]methyl]-2-methyl-pyridin-1-ium-4-amine] were, in that order, 52 nM and 4040 nM.
`Cc1cc(NCc2ccc3cncc(-c4cc5ccccc5o4)c3c2)cc(C)n1` [Example 126]: the IC50 was found to be 363 nM on MNK1 and 5500 nM in assay [1].
The matching figures for `Nc1cc[n+](Cc2ccc3cncc(-c4cc5ccccc5o4)c3c2)nc1` [Example 127]: 21 nM and 8480 nM.
As to `c1ccc2oc(-c3cncc4ccc(CNc5ccncn5)cc34)cc2c1` [Example 128], the IC50 on MNK1 was determined as 84 nM; in assay [1], 15800 nM.
On to `Nc1ccc(NCc2ccc3cncc(-c4cc5ccccc5o4)c3c2)cn1` [Example 129], for which the values for the IC50 (at MNK1; in assay [1]) were 143 nM and 23100 nM, respectively.
The matching figures for `Nc1cc(NCc2ccc3cncc(-c4cc5ccccc5o4)c3c2)ccn1` [Example 130, N4-[[4-(Benzofuran-2-yl)-6-isoquinolyl]methyl]pyridine-2,4-diamine]: 21 nM and 580 nM.
As for `Nc1ccc(Nc2ccc3cncc(-c4cc5ccccc5o4)c3c2)cc1` [Example 132, N1-[4-(Benzofuran-2-yl)-6-isoquinolyl]benzene-1,4-diamine], the IC50 on MNK1 amounted to 3120 nM. Also, the inhibition at 100 µM in assay [1] was determined as 53%.
Consider `NCc1ccc(Nc2ccc3cncc(-c4cc5ccccc5o4)c3c2)cc1` [Example 133], for which the results for the IC50 (on MNK1; in assay [1]) were 152 nM and 11500 nM, respectively.
Turning to `c1cncc(Nc2ccc3cncc(-c4cc5ccccc5o4)c3c2)c1` [Example 134], the IC50 at MNK1 was 4680 nM. For the same compound, the inhibition at 100 µM in assay [1] stood at 45%.
In the case of `Nc1cccc(Nc2ccc3cncc(-c4cc5ccccc5o4)c3c2)c1` [Example 135], the IC50 was found to be 4680 nM at MNK1 and 10900 nM in assay [1].
Consider `NCc1cccc(Nc2ccc3cncc(-c4cc5ccccc5o4)c3c2)c1` [Example 136], for which the IC50 worked out at 558 nM on MNK1 and 20600 nM in assay [1].
The matching figures for `Nc1cc(Nc2ccc3cncc(-c4cc5ccccc5o4)c3c2)ccn1` [Example 137, N4-[4-(Benzofuran-2-yl)-6-isoquinolyl]pyridine-2,4-diamine]: 1090 nM and 3250 nM.
Consider `Nc1ccc(Nc2ccc3cncc(-c4cc5ccccc5o4)c3c2)cn1` [Example 138, N5-[4-(Benzofuran-2-yl)-6-isoquinolyl]pyridine-2,5-diamine], for which the IC50 at MNK1 came to 1600 nM; in assay [1], 12100 nM.
Take `c1ccc2oc(-c3cncc4ccc(Nc5ccncc5)cc34)cc2c1` [Example 139, 4-(Benzofuran-2-yl)-N-(4-pyridyl)isoquinolin-6-amine]: the IC50 at MNK1 was 903 nM; in assay [1], 10400 nM.
As for `N[C@H]1CC[C@H](Nc2cc3c(-c4cc5ccccc5o4)cncc3cc2Cl)CC1` [Example 140, N4-[4-(Benzofuran-2-yl)-7-chloro-6-isoquinolyl]cyclohexane-1,4-diamine], the IC50 at MNK1 was 10 nM; in assay [1] it was 1870 nM.
For `COc1cc2cncc(-c3cc4ccccc4o3)c2cc1N[C@H]1CC[C@H](N)CC1` [Example 141, N4-[4-(Benzofuran-2-yl)-7-methoxy-6-isoquinolyl]cyclohexane-1,4-diamine], the IC50 on MNK1 is 187 nM; in assay [1], 2260 nM.
The matching figures for `N[C@H]1CC[C@H](Nc2cc(Cl)c3cncc(-c4cc5ccccc5o4)c3c2)CC1` [Example 142, N4-[4-(Benzofuran-2-yl)-8-chloro-6-isoquinolyl]cyclohexane-1,4-diamine]: 180 nM and 3790 nM.
On to `COc1cc(N[C@H]2CC[C@H](N)CC2)cc2c(-c3cc4ccccc4o3)cncc12` [Example 143, N4-[4-(benzofuran-2-yl)-8-methoxy-6-isoquinolyl]cyclohexane-1,4-diamine], for which the IC50 at MNK1 stood at 474 nM; in assay [1], 1960 nM.
For `NC1CCN(Cc2ccc3nncc(-c4cc5ccccc5o4)c3c2)CC1` [Example 144, 1-[[4-(Benzofuran-2-yl)cinnolin-6-yl]methyl]piperidin-4-amine], the values for the IC50 (on MNK1; in assay [1]) were 1890 nM and 4610 nM, respectively.
The matching figures for `NC1CCN(Cc2ccc3nncc(-c4ccc(Cl)cc4)c3c2)CC1` [Example 145, 1-[[4-(4-Chlorophenyl)cinnolin-6-yl]methyl]piperidin-4-amine]: 2720 nM and 29000 nM.
Consider `c1ccc2oc(-c3cncc4ccc(OCc5ccncc5)cc34)cc2c1` [Example 146, 4-(Benzofuran-2-yl)-6-(4-pyridylmethoxy)isoquinoline], for which the IC50 on MNK1 is 268 nM; in assay [1], 20000 nM.
The matching figures for `c1ccc2oc(-c3cncc4ccc(NCc5ccncc5)cc34)cc2c1` [Example 147, 4-(Benzofuran-2-yl)-N-(4-pyridylmethyl)isoquinolin-6-amine]: 92 nM and 7140 nM.
The matching figures for `N[C@H]1CC[C@H](Nc2ccc3cncc(-c4cc5ccccc5o4)c3c2)CC1` [Example 148, 4-(Benzofuran-2-yl)-N-(4-(trans)aminocyclohexyl)isoquinolin-6-amine]: 58 nM and 1740 nM.
Regarding `Nc1ncc(-c2cc3ccccc3o2)c2cc(CNc3ccncc3)ccc12` [Example 151, 4-(Benzofuran-2-yl)-6-[(4-pyridylamino)methyl]isoquinolin-1-amine], the IC50 at MNK1 worked out at 11 nM; in assay [1], 2510 nM.
As for `Nc1cc[n+](Cc2ccc3c(N)ncc(-c4cc5ccccc5o4)c3c2)cc1` [Example 152, 6-[(4-Aminopyridin-1-ium-1-yl)methyl]-4-(benzofuran-2-yl)isoquinolin-1-amine], the IC50 on MNK1 was found to be 17 nM; in assay [1], 1560 nM.
In the case of `Nc1ncc(-c2cc3ccccc3o2)c2cc(CN3CCC(N)CC3)ccc12` [Example 153, 6-[(4-Amino-1-piperidyl)methyl]-4-(benzofuran-2-yl)isoquinolin-1-amine], the IC50 at MNK1 came to 131 nM; in assay [1] it was 3500 nM.
In the case of `N[C@H]1CC[C@H](C(=O)Nc2ccc3cncc(-c4cc5ccccc5o4)c3c2)CC1` [Example 156, trans-4-Amino-N-[4-(benzofuran-2-yl)-6-isoquinolyl]cyclohexanecarboxamide], the figures for the IC50 (at MNK1; in assay [1]) were 371 nM and 10400 nM, respectively.
`N[C@H]1CC[C@@H](C(=O)Nc2ccc3cncc(-c4cc5ccccc5o4)c3c2)CC1` [Example 157]: the results for the IC50 (at MNK1; in assay [1]) were 50 nM and 7880 nM, respectively.
For the compound `N[C@H]1CC[C@H](NC(=O)c2ccc3cncc(-c4cc5ccccc5o4)c3c2)CC1` [Example 160, Trans-N-(4-aminocyclohexyl)-4-(benzofuran-2-yl)isoquinoline-6-carboxamide], the IC50 is 284 nM at MNK1 and 12200 nM in assay [1].
In the case of `N[C@H]1CC[C@@H](NC(=O)c2ccc3cncc(-c4cc5ccccc5o4)c3c2)CC1` [Example 161], the IC50 at MNK1 was 465 nM; in assay [1] it was 24000 nM.
`Nc1ncc2ccc(CN3CCC(N)CC3)cc2c1-c1ccccc1` [Example 162, 6-[(4-Amino-1-piperidyl)methyl]-4-phenyl-isoquinolin-3-amine]: at MNK1 (at 1 μM, read-out: Inhibition of MNK1 activity at indicated concentration), the inhibition at 1 µM amounted to 54%. Moreover, in assay [1], the IC50 came out at 9880 nM.
Turning to `Nc1ncc2ccc(CN3CCC(N)CC3)cc2c1-c1ccc(O)cc1` [Example 163], the IC50 was 142 nM at MNK1 and 13800 nM in assay [1].
As for `Nc1ncc2ccc(CN3CCC(N)CC3)cc2c1-c1cc2ccccc2o1` [Example 164, 6-[(4-Amino-1-piperidyl)methyl]-4-(benzofuran-2-yl)isoquinolin-3-amine], the IC50 came to 847 nM at MNK1 and 6620 nM in assay [1].
The like results for `Nc1ncc2ccc(CNc3ccncc3)cc2c1-c1cc2ccccc2o1` [Example 165, 4-(Benzofuran-2-yl)-6-[(4-pyridylamino)methyl]isoquinolin-3-amine] were, in that order, 6 nM and 5700 nM.

The record behind these values is patent US20200031811A1, “SUBSTITUTED MONO- AND POLYAZANAPHTHALENE DERIVATIVES AND THEIR USE” (Basilea Pharmaceutica International AG, priority 2015, published 2020).
